Here are results for four compounds from US6814967B2, “Antibodies to cortistatin: neuropeptides, compositions and methods” (The Scripps Research Institute, priority 1996, dated 2004).

Experiment [1] has as its system somatostatin receptors on GH4 pituitary cells. The experiment in a line: Displacement of 125I-somatostatin-14 bound to GH4 pituitary cells. The experiment is classed as binding. To be noted: for Kd: GH4 pituitary cells, four independent experiments, read-out: estimated Kd, displacement of 125I-somatostatin-14 binding; for displacement of 125I-somatostatin: GH4 cells, control peptides. The procedure:
To determine the binding specificity of cortistatin and in view of its similarity to somatostatin, assays to assess the binding of chemically synthesized, linear cortistatin-14 peptide prepared in Example 2 to somatostatin receptors on GH4 pituitary cells were performed.
GH4 cells, obtained from Dr. Kaare M. Gautvik (University of Oslo) or ATCC, were grown in MEM medium with 12% fetal calf serum in 6-well plates at 10^6 cells/ml. Each well then received 10^6 cpm/ml of ^125I somatostatin-14 (NEN, DuPont, Wilmington, Del.) alone or with increasing concentrations of somatostatin-14 peptide (Sigma) or cortistatin-14 peptide (95%, purified by reverse phase HPLC ranging from 10^−10 M to 10^−6 M. Aprotinin and leupeptin (Sigma; […]) was included as it reduced non-specific binding to 20% of total bound radioactivity. The binding of ^125I somatostatin in the presence of 10^−7 M somatostatin was considered as unspecific binding as described by Schonbrunn et al., J. Biol. Chem., 235:6473-6483 (1978).

Experiment [2] relates to voltage-dependent potassium M current (IM). The experiment in a line: Voltage-clamp recording of M current (IM) relaxation in CA1 neurons. The format is cell-based, rat. Also on record: dose or concentration left out as unconfirmed. To be noted: 7 minutes superfusion; CA1 neuron held at −43 mV. The text has this:
To determine the mechanism of the cortistatin-induced inhibition, we assessed the effect of cortistatin on the M current (IM), a non-inactivating voltage-dependent potassium current seen in hippocampal neurons as described by Halliwell et al., Brain Res., 250:71-92 (1982).
In voltage clamp assays, the IM relaxation was observed by applying hyperpolarizing steps (5 to 25 mV) from a holding potential of −43 to −48 mV.

The test system of experiment [3] is hippocampal CA1 pyramidal cells. The experiment in a line: Current-clamp intracellular recording in hippocampal slices. The format is cell-based, rat. To be noted: for time to maximum steady effect (time-to-peak) after onset of the response: hippocampal slice CA1 neurons, superfusion. The procedure: Somatostatin is known to hyperpolarize central neurons by increasing potassium conductances as described by Inoue et al., J. Physiol., 407:177-198 (1988), including the voltage-dependent potassium M current (see Moore et al., Science, 239:278-280 (1988) and Jacquin et al., Proc. Natl. Acad. Sci., USA, 85:948-952 (1988)). To complete the characterization of the physiological role of cortistatin, assays were performed to determine whether cortistatin had somatostatin-like effects on hippocampal neurons by means of current- and voltage-clamp recordings in the hippocampal slice preparation.
Intracellular recordings were obtained in rat hippocampal slices using sharp glass micropipettes as previously described by Schweitzer et al., J. Neurosci., 13:2033-2049 (1993). Recordings were made from 11 hippocampal CA1 pyramidal cells with an average resting membrane potential of −70 Å 1 mV (mean Å s.e.m.) and action potential of 103 Å 2 mV. Current-clamp recording of a CA1 neuron manually depolarized to −65 mV (resting membrane potential was −70 mV) to elicit action potential firing (upward deflections, truncated) is shown in FIG. 6A.
Superfusion of […] cortistatin-14 peptide (bar above record), prepared as described in Example 3, like somatostatin-14, hyperpolarized these neurons (10 of 11 cells), in association with inhibition of action potential firing, followed by recovery to control levels upon washout of the peptide. Unlike somatostatin, the cortistatin-14-mediated effect developed slowly, reaching a maximum steady effect six to eight minutes after the onset of the response. This contrasted with the time-to-peak of somatostatin′s effect on these neurons under the same experimental conditions that was much shorter (2-3 minutes).

Experiment [4] deals with sleep-wake cycle of the rat. The experiment in a line: Intracerebroventricular administration, EEG and sleep-wake cycle of the rat. The format is in vivo. The text has this:
As cortistatin is expressed in interneurons located in the cerebral cortex and hippocampus, its effects on cortical measures of neuronal excitability was next determined in vivo. Up to 6 nmoles of HPLC-purified synthetic cortistatin-14 peptide prepared in Example 3 were infused into the brain ventricles of rats (n=5) and recorded the electroencephalogram (EEG) for four hours after peptide injection. […] Standard methodologies for chronic electrophysiological preparation and data acquisition were used. Procedures for EEG recordings and PP studies are as described by Prospero-Garcia et al., Pharmacol. Biochem. Behav., 49:413 (1994) and Steffensen et al., Brain Res., 652:149 (1994).
FIGS. 7A-1, 7A-2, 7A-3 and 7A-4 show the effects of the intracerebroventricular administration of cortistatin on the sleep-wake cycle of the rat. FIGS. 7A-1, 7A-2, 7A-3 and 7A-4 respectively illustrate wakefulness, slow-wave sleep 1, slow-wave sleep 2 and REM sleep. The effects of the sleep cycle were assessed with cortistatin-14 dosages at 100 ng, 500 ng, […] as plotted from left to right in the bar graphs as shown against saline control. Asterisks represent significance levels of P<0.05; ANOVA.

Experiment [5] has as its target somatostatin receptor 1 (SSTR1) (Homo sapiens, UniProt P30872). The experiment in a line: Binding studies to cloned somatostatin receptors.
For a further experiment, the system named is CA1 pyramidal neurons. The experiment in a line: Population spike amplitudes in CA1 in vivo, iontophoretic application, anesthetized rats. Also on record: species or system rat. The conditions noted are these: microiontophoretic application, 1 mg/ml in saline; half-maximal and maximal stimulation; P<0.05. The procedure: The inhibitory effects of cortistatin on the excitability of CA1 pyramidal neurons as viewed by population spike (PS) amplitudes was paralleled in vivo in the anesthetized preparation. For the in vivo studies, male Sprague-Dawley rats were anesthetized with halothane (0.9-1.1%). The commisural pathway was stimulated and elicited field potentials in the CA1 region essentially as described by Steffensen et al., Brain Res., 538:46-53 (1991). Cortistatin (1 mg/ml) was dissolved in saline and administered iontophoretically through one barrel of a multibarreled micropipette. […] Asterisks represent significance levels at P<0.05. The data was compiled with software (LabView Instruments, National Instruments, Austin, Tex.) as described by Steffensen et al., Brain Res., 538:46-53 (1991).
Stimulation of the monosynaptic afferent input to the CA1 region evoked a characteristic population spike (PS) that represents the synchronous firing of pyramidal cells, superimposed on a field synaptic potential waveform as described by Anderson et al., Exp. Brain Res., 13:208-221 (1971).

A further experiment concerns SSTR 2-5. Description: Binding studies to cloned somatostatin receptors. The conditions noted are these: relative to somatostatin.
A further experiment has as its system hippocampal CA1 neurons. Description: Paired-pulse (PP) responses in CA1 neurons in vivo, iontophoretic application. On the set-up: species or system rat. To be noted: for effect on PP responses (PP inhibition) in CA1: applied alone iontophoretically, ACh 0.9 M, somatostatin 1.5 mM, 80 ms interstimulus interval.
Experiment [6] deals with endogenous somatostatin receptors expressed by GH4 cells. Description: cAMP assay in GH4 cells stimulated with VIP or TRH. The experiment is classed as cell-based. The procedure:
To investigate whether cortistatin modulates somatostatin receptor activation, the concentration of cyclic AMP (cAMP) was determined following stimulation of GH4 cells with VIP or TRH in the presence or absence of either cortistatin or somatostatin.
For the cAMP assays, GH4 cells were grown under the same conditions as for the binding assays. The cells were washed with MEM without serum, but containing leupeptin, aprotinin and 1 mM 3-isobutyl-methyl-xantine (IBMX). The cells were pretreated with somatostatin-14 and cortistatin-14 for 15 minutes before VIP at 10^−6 M was added or TRH at 10^−7 M. To each well, ^3H cyclic AMP was added before the content was removed, to calculate recovery. For cAMP measurements, a RIA kit (Amersham, Arlington Heights, Ill.) was used according to the instructions of the manufacturer. Each time point represents 2-4 replicates and the experiments were carried out twice.
(In general: Changes in cAMP serve as a functional read-out for many G protein-coupled receptors.)

Experiment [7] relates to cerebral cortex (visual cortex) local EEG. The experiment in a line: Local EEG activity in visual cortex of anesthetized rats, microiontophoretic application. The experiment is classed as in vivo, rat. The procedure: To investigate further whether cortistatin also interacts with cholinergic systems that regulate cortical function, the effects of cortistatin on ACh-induced desynchronization of EEG in the cerebral cortex of anesthetized rats was determined. Thus, ACh and cortistatin was microiontophoretically (100-250 nA) applied on local EEG activity recorded in the visual cortex. For the data shown in FIG. 7G, the results from the experimental groups were derived from averaged EEG spectral activity determinations and expressed as means Å s.e.m. (Asterisk represents significance levels P<0.05 from baseline; two asterisks represent significance levels P<0.05 from ACh; ANOVA).

Setting [8] is: peptide alone at 10^−6 M, compared to control.

somatostatin receptor 1 (SSTR1), sequence (P30872 whole entry, species assumed): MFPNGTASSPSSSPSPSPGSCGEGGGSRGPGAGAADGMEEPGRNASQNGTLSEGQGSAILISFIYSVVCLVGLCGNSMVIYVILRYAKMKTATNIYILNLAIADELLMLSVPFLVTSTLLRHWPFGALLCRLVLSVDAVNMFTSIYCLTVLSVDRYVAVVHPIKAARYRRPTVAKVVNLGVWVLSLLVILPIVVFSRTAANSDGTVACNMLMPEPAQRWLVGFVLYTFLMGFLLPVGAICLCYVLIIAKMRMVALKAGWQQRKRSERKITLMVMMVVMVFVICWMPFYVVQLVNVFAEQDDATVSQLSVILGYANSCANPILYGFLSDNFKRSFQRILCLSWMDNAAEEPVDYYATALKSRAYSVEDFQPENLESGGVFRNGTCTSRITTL
Source text for hippocampal CA1 neurons: Stimulation intensity was adjusted after drug treatment to achieve control PS amplitudes before performing PP studies.

What is called Kd is the concentration at which binding is half-saturated. Take “14-residue peptide of SEQ ID NO 8 (PCKNFFWKTFSSCK), same sequence for rat and mouse, chemically synthesized [cortistatin-14]”: the Kd in experiment [1] is 5 nM. Moreover, the “increase of the amplitude of the IM relaxation” value in experiment [2] amounted to 60%. Moreover, in experiment [3], the “time to maximum steady effect (time-to-peak) after onset of the response” value is “six to eight”. Moreover, the “effect on membrane potential of CA1 neurons” value in experiment [3] (superfusion of 1 M, 10 of 11 cells, inhibition of action potential firing, recovery on washout) was “hyperpolarized”. Also, in experiment [4] (infused into brain ventricles of rats), the “EEG cortical slow waves (1-4 Hz)” value is on record as “dramatic increase”. Besides, the spontaneous behavior result in [4] (infused into brain ventricles of rats, compared to saline-injected rats) is given as “clear hypoactive behavior”. The “share of the four hour recording time in slow-wave sleep” value in experiment [4] (intracerebroventricular, 40% in saline-treated control animals) is “up to 75%”. Moreover, the “paradoxical (REM) sleep” value in experiment [4] (intracerebroventricular, highest dose) is on record as “significant reduction”. For the same compound, the “affinity for somatostatin receptor 1 (SSTR1)” value in [5] was “comparable to somatostatin”. Also, the “population spike (PS) amplitudes” value with CA1 pyramidal neurons is reported as “significantly decreased”. Also, the “affinity for SSTR 2-5” value in the experiment with SSTR 2-5 is “far lesser affinity”. Moreover, the “effect on PP responses (PP inhibition) in CA1” value in the experiment with hippocampal CA1 neurons was “no significant effects”. Further, in the experiment with hippocampal CA1 neurons (simultaneous iontophoretic application with ACh, P<0.05), the “effect on the ACh-induced reduction of PP inhibition” value is recorded as “completely antagonized”. Further, the “intracellular concentration of cAMP” value in experiment [6] (setting [8]) is reported as “no effect”. In [7] (applied alone, 100-250 nA, visual cortex, anesthetized rats), the “local EEG (averaged EEG power spectra)” value is given as “not different from baseline”. In addition, the “effect of ACh on local EEG (increase in fast frequency activity)” value in experiment [7] (simultaneous electrophoretic application with ACh) is given as “effectively prevented”.
On to `C[C@H](N)C(=O)NCC(=O)N[C@H]1CSSC[C@@H](C(=O)O)NC(=O)[C@H](CO)NC(=O)[C@H]([C@@H](C)O)NC(=O)[C@H](Cc2ccccc2)NC(=O)[C@H]([C@@H](C)O)NC(=O)[C@H](CCCCN)NC(=O)[C@H](Cc2c[nH]c3ccccc23)NC(=O)[C@H](Cc2ccccc2)NC(=O)[C@H](Cc2ccccc2)NC(=O)[C@H](CC(N)=O)NC(=O)[C@H](CCCCN)NC1=O` [somatostatin-14, reference compound], for which the dissociation constant Kd in [1] was 5 nM. In addition, in experiment [3], the “time to maximum steady effect (time-to-peak) after onset of the response” value lay in the range of 2 to 3 min. Further, the “effect on PP responses (PP inhibition) in CA1” value with hippocampal CA1 neurons is on record as “markedly decreased PP inhibition”. Besides, in [6] (setting [8]), the “intracellular concentration of cAMP” value was “no effect”.
For the compound “thryoid releasing hormone (QHP) [TRH, control peptide and cAMP stimulator (Calbiochem)]”, the “displacement of 125I-somatostatin” value in [1] is “did not show any displacement”. The “intracellular concentration of cAMP” value in experiment [6] (peptide alone at 10^−7 M) was “increased”.
As for “vasoactive intestinal peptide (HSDAVFTDNYTRLRKQMAVKKYLNSILN) [VIP, control peptide and cAMP stimulator (Bachem)]”, the “displacement of 125I-somatostatin” value in [1] is “did not show any displacement”. Further, in experiment [6] (setting [8]), the “intracellular concentration of cAMP” value is given as “increased”.
